Laboratory results taken from patent US10981932B2, “Macrocyclic indole derivatives” (Bayer Aktiengesellschaft, priority 2016, dated 2021).
pIC50: −log10 of the molar value. Where a name gives a salt, the structure may show the parent alone.

Experiments:
[1] = target: T1, BCL-2 (Homo sapiens, UniProt P10415); assay: Protein-protein interaction assay BCL-2/Bad BH3 peptide (BCL-2 assay), TR-FRET; type: binding; conditions: His-BCL-2 / Bad BH3-derived peptide, median
T1 construct: BCL-2 (amino acids 1-211, C-terminal fused to a hexahistidine (6×His) tag); purchased BPS Bioscience (San Diego, Calif., USA); host or cells: E. coli
Method: Protein-Protein Interaction Assay: BCL-2/Bad BH3 Peptide (BCL-2 Assay)
(§1) The dose-dependent inhibition by the compounds described in this invention of the interaction between BCL-2 and the BH3 domain of Bad (both human) was determined using a steady state binding competition assay with time-resolved fluorescence energy transfer (TR-FRET) readout. For that purpose BCL-2 (amino acids 1-211, C-terminal fused to a hexahistidine (6×His) tag and a synthetic Bad BH3-derived peptide of sequence Biotin-PEG2-PEG2-NLWAAQRYGRELRR-Nle-SDEFVDSFKK-amide (SEQ ID NO: 2) served as protein receptor and tracer ligand respectively. The recombinant BCL-2 protein (expressed in E. coli) was purchased from BPS Bioscience (San Diego, Calif., USA). The Bad BH3-derived peptide can be obtained from e.g. Biosyntan (Berlin, Germany).
(§2) In the assay 11 different concentrations of each compound (0.1 nM, 0.33 nM, 1.1 nM, 3.8 nM. 13 nM, 44 nM, 0.15 μM, 0.51 μM, 1.7 μM, 5.9 μM and 20 μM) were typically measured as duplicates in the same microtiter plate. For that, 100-fold concentrated DMSO solutions were prepared by serial dilutions (1:3.4) of a 2 mM stock solution in a clear, 384-well microtiter plate (Greiner Bio-One, Frickenhausen, Germany). From there, 50 nl were transferred in a dark test plate (Greiner Bio-One. Frickenhausen, Germany). The assay was initiated by addition of 2 μl of a 2,5-fold concentrated His-BCL-2 solution (usually for a 1 nM end concentration in 5 μl reaction volume) in aqueous assay buffer [50 mM Tris/HCl pH 7, 100 mM sodium chloride (NaCl), 50 mM potassium fluoride (KF), 0.005% Tween-20, 2 mM DTT, 0.1% bovine gamma globulin (BGG)] to the compounds in the assay plate. This was followed by a 10-minute incubation step at 22° C. for pre-equilibration of the putative complex between His-BCL-2 and the compounds.
(§3) The mixture was incubated in the dark for one hour at 22° C. and then overnight at 4° C. The formation of BCL-2/Bad complexes was determined by measuring the resonance energy transfer of the anti-His-Eu-cryptate antibody to the streptavidin-XL665 present in the reaction. For that purpose, the fluorescence emission at 620 nm and 665 nm after excitation at 330-350 nm was measured in a TR-FRET measuring instrument, for instance a Rubystar or a Pherastar (both from BMG Lab Technologies. Offenburg, Germany) or a Viewlux (Perkin-Elmer). The ratio of the emission at 665 nm and at 622 nm was used as indicator of the amount of BCL-2/Bad complexes present.
(§4) The resulting data (ratio) were normalized, taking 0% inhibition as the mean value of control measurements (usually 32 data points) where all reagents were included. In this case 50 nl DMSO were used instead of compounds. A 100% inhibition corresponded to the mean value of control measurements (usually 32 data points) where all reagents except BCL-2 were included. IC50 values were determined by regression analysis based on a 4 parameter equation (minimum, maximum, IC50, Hill; Y=Max+(Min−Max)/(1+(X/IC50)^Hill) using the Screener Software (Genedata).

[2] = target: T2, BCL-XL (Homo sapiens, UniProt Q07817); assay: Protein-protein interaction assay BCL-XL/Bad BH3 peptide (BCL-XL assay), TR-FRET; type: binding; conditions: His-BCL-XL / Bad BH3-derived peptide
T2 construct: BCL-XL (amino acids 1-212, C-terminal fused to a hexahistidine (6×His) tag); purchased BPS Bioscience (San Diego, Calif., USA); host or cells: E. coli
Method: Protein-Protein Interaction Assay: BCL-XL/Bad BH3 Peptide (BCL-XL Assay)
as §1, with “tag (SEQ ID NO: 3)” for “tag”, “Biotin-PEG2-PEG2-NLWAAQRYGRELRR-NIe-SDEFVDSFKK-amide” for “Biotin-PEG2-PEG2-NLWAAQRYGRELRR-Nle-SDEFVDSFKK-amide”
as §2, with “3.8 nM,” for “3.8 nM.”, “concentrated Hs-BCL-XL” for “concentrated His-BCL-2”, “between His-BCL-XL” for “between His-BCL-2”
as §3, with “BCL-XL/Bad” for “BCL-2/Bad”, “anti-His- Eu-cryptate” for “anti-His-Eu-cryptate”, “Technologies,” for “Technologies.”
as §4, with “BCL-XL” for “BCL-2”

T1 sequence (P10415 1-211): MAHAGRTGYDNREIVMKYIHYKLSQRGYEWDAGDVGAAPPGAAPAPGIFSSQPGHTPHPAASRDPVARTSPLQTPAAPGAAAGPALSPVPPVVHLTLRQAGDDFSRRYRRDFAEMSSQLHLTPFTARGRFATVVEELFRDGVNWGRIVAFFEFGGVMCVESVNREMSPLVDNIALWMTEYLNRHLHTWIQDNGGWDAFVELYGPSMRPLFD
T2 sequence (Q07817 1-212): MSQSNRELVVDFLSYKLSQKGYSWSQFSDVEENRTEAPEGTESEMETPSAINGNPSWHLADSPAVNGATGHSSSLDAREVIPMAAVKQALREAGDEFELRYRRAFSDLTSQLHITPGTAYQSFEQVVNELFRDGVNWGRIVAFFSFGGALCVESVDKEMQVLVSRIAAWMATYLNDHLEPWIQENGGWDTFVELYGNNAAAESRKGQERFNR

Compound | IC50 [1] [µM] | pIC50 [2]
CCc1c2c(nn1C)CN(C)CCCn1c(C(=O)O)c(CCCOc3cccc4ccccc34)c3ccc(C)c-2c31 (single isomer, unassigned; enantiomer 1) [Example 145, 11-Ethyl-7,10,12-trimethyl-1-[3-(1-naphthyloxy)propyl]-4,5,6,7,8,10-hexahydropyrazolo[3′,4′:7,8][1,5]diazecino[9,10,1-hi]indole-2-carboxylic acid-N-ethylethanamine Salt (Enantiomer 1)] | > 20 | < 4.70
CCc1c2c(nn1C)COCCCCn1c(C(=O)O)c(CCCOc3cccc4ccccc34)c3cccc-2c31 (single isomer, unassigned; enantiomer 1) [Example 148, 3-Ethyl-2-methyl-7-[3-(1-naphthyloxy)propyl]-2,10,11,12,13,15-hexahydropyrazolo[4′,3′:9,10][1,6]oxazacycloundecino[8,7,6-hi]indole-8-carboxylic acid-N-ethylethanamine Salt (Enantiomer 1)] | > 20 | < 4.70
CCc1c2c(nn1C)COCCCCn1c(C(=O)O)c(CCCOc3cccc4ccccc34)c3ccc(C)c-2c31 (single isomer, unassigned; enantiomer 1) [Example 154, 3-Ethyl-2,4-dimethyl-7-[3-(1-naphthyloxy)propyl]-2,10,11,12,13,15-hexahydropyrazolo[4′,3′:9,10][1,6]oxazacycloundecino[8,7,6-hi]indole-8-carboxylic acid-N-ethylethanamine Salt (Enantiomer 1)] | > 20 | < 4.70
Cn1nc(COc2ccc(N3CCN(S(C)(=O)=O)CC3)cc2)c2c1COCCCCn1c(C(=O)O)c(CCCOc3cccc4ccccc34)c3cccc-2c31 (single isomer, unassigned; enantiomer 2) [Example 1-10, 1-methyl-3-({4-[4-(methylsulfonyl)piperazin-1-yl]phenoxy}methyl)-7-[3-(naphthalen-1-yloxy)propyl]-1,10,11,12,13,15-hexahydropyrazolo[4′,3′:9,10][1,6]oxazacycloundecino[8,7,6-hi]indole-8-carboxylic acid (enantiomer 2)] | > 20 | < 4.70

Next, values leading:

IC50 [1] [µM] | pIC50 [2] | Compound
> 20 | < 4.70 | COCCn1nc2c(c1C1CC1)-c1cccc3c(CCCOc4cccc5ccccc45)c(C(=O)O)n(c13)CCCCOC2 (single isomer, unassigned; enantiomer 1) [Example 085, 3-Cyclopropyl-2-(2-methoxyethyl)-7-[3-(naphthalen-1-yloxy)propyl]-2,10,11,12,13,15-hexahydropyrazolo[4′,3′:9,10][1,6]oxazacycloundecino[8,7,6-hi]indole-8-carboxylic acid-N-ethylethanamine Salt (Enantiomer 1)]
> 20 | < 4.70 | Cc1c2c(nn1C1CC1)COCCCCn1c(C(=O)O)c(CCCOc3cccc4ccccc34)c3cccc-2c31 (single isomer, unassigned; enantiomer 1) [Example 093, 2-cyclopropyl-3-methyl-7-[3-(naphthalen-1-yloxy)propyl]-2,10,11,12,13,15-hexahydropyrazolo[4′,3′:9,10][1,6]oxazacycloundecino[8,7,6-hi]indole-8-carboxylic acid-N-ethylethanamine Salt (Enantiomer 1)]
> 20 | < 4.70 | COCCn1nc2c(c1C)-c1cccc3c(CCCOc4cccc5ccccc45)c(C(=O)O)n(c13)CCCCOC2 (single isomer, unassigned; enantiomer 1) [Example 107, 2-(2-methoxyethyl)-3-methyl-7-[3-(naphthalen-1-yloxy)propyl]-2,10,11,12,13,15-hexahydropyrazolo[4′,3′:9,10][1,6]oxazacycloundecino[8,7,6-hi]indole-8-carboxylic acid-N-ethylethanamine Salt (Enantiomer 1)]
